Measured values published in ChEMBL document CHEMBL1201862, “PubChem BioAssay data set” (2004).
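The compound was tested at five concentrations on cells cultured in 96-well plates, with a 48-hour exposure period. The concentration for 50% growth inhibition is given as GI50.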 Active and inactive are the calls of the source. Cut-off read from the data, not from the text of the source: active = GI50 up to about 1.1 µM and inactive = higher.

Key:
Test in all cases: DTP human tumour cell line panel, 48 h
Malme-3M = test system: Malme-3M
OVCAR-3 = test system: OVCAR-3
HT-29 = test system: HT-29
OVCAR-5 = test system: OVCAR-5
SNB-75 = test system: SNB-75
HL-60 = test system: HL-60
LOX IMVI = test system: LOX IMVI
786-0 = test system: 786-0
SF-539 = test system: SF-539
DLD-1 = test system: DLD-1
TK-10 = test system: TK-10
SNB-19 = test system: SNB-19
NCI-H460 = test system: NCI-H460
SF-268 = test system: SF-268
SK-MEL-5 = test system: SK-MEL-5
HCC 2998 = test system: HCC 2998
NCI-H226 = test system: NCI-H226

Measured: GI50

COc1cc2c3c(c1OC)-c1ccccc1C(C(O)c1ccccc1)C3N(C)CC2 (stereo unspecified)
inactive: Malme-3M 19.6 µM | OVCAR-3 34.8 µM | HT-29 24.7 µM | OVCAR-5 > 100 µM | SNB-75 40 µM | HL-60 20 µM | LOX IMVI 32.1 µM | 786-0 30.7 µM | SF-539 21.4 µM | DLD-1 26.4 µM | TK-10 33.9 µM | SNB-19 88.5 µM | NCI-H460 27.3 µM | SF-268 31.7 µM | SK-MEL-5 14.4 µM | HCC 2998 17.7 µM | NCI-H226 31 µM

C=C1c2ccccc2N(S(=O)(=O)c2ccc(C)cc2)C12CCCCC2
inactive: Malme-3M 34.8 µM | OVCAR-3 77.6 µM | HT-29 52.4 µM | OVCAR-5 > 100 µM | SNB-75 50.9 µM | HL-60 19.8 µM | LOX IMVI 36.6 µM | 786-0 > 100 µM | SF-539 > 100 µM | DLD-1 > 100 µM | TK-10 > 100 µM | SNB-19 > 100 µM | NCI-H460 86.7 µM | SF-268 63 µM | SK-MEL-5 30.8 µM | HCC 2998 > 100 µM | NCI-H226 53.2 µM

O=C(O)c1cc2ccc(Cl)cc2c(O)c1C1=CCCCC1
inactive: Malme-3M 50.1 µM | OVCAR-3 33.5 µM | HT-29 46.1 µM | OVCAR-5 54.1 µM | SNB-75 19.4 µM | HL-60 30.8 µM | LOX IMVI 33 µM | 786-0 52.8 µM | SF-539 36.6 µM | DLD-1 41.7 µM | TK-10 63.8 µM | SNB-19 39 µM | NCI-H460 35.8 µM | SF-268 52.2 µM | SK-MEL-5 30.3 µM | HCC 2998 > 100 µM | NCI-H226 26.7 µM
